# Assay results published in patent US10357533B2, “Drug for the effective control of acute and or chronic pain and a method for its administration” (PVP LABS PTE. LTD., priority 2016, dated 2019).
# Where a SMILES comes first, the peptide text is derived from it. [ ]: non-standard residue; d: D form.
# Tests used:
# patients = test: Clinical application in patients with severe pain; assay type: in vivo, humans
# Description: The use of the peptide compound in patients who have been informed about the drug and who have given their consent
# When the morphine drug therapy was once again possible, the use of the experimental prototype of the drug was stopped.
# Based on the extrapolation of animal data for dosages for humans, we decided to use 0.7-3 mg of the active tetrapeptide in a single dose, administered by subcutaneous injection, and under the supervision of a specialist. The drug was packaged in lyophilized form of 3 mg per vial before use and dissolved in 1-3 ml of water for injections.
# The following parameters were recorded:
# 1. Time of onset of analgesic effect, duration of effect.
# Dynamics of pain on a numerical scale of 0-10: 0—no pain, 10—unbearable pain. The patient makes regular notes on the intensity level of pain during treatment to assess the analgesic effect. Separately, the intensity of pain is noted before receiving the experimental prototype preparation, and during its' administration. 2. The physical activity of the patient. Measured on a scale: 1—normal activity, 2—activity is reduced; the patient is able to go to their own doctor, 3—bed rest at least 50% of the day, 4—bed rest for more than 50% of the day, 5—complete bed rest. 3. Subjective feelings of the patient A change of perception, mood, presence/absence of euphoria or dysphoria, discomfort in the body, feelings in the digestive tract.
# Basically, the study was conducted in patients with somatic and internal types of pain, though often it was not possible to accurately classify the type of pain.
# mice = test: Antinociceptive tolerance and withdrawal syndrome, tail flick test in mice; assay type: in vivo; conditions: for TFL, s, Baseline values (Mean ± SEM): before administering
# Description: The tail flick test was the main method of evaluating peptide compound antinociceptive tolerance and withdrawal syndrome. The test involved evaluating tail flick latency (TFLtest). Baseline tail flick latency TFLbase was evaluated before administering the substances. The test was performed in outbred male mice.
# The animals were randomized into 4 groups of 10 animals in each group: Group 1: control—the animals were administered subcutaneous injections of water for injections for 14 days; Group 2: single peptide compound administration group—the animals were administered water for injections for 13 days and peptide compound at a dose of 0.5 mg/kg on day 14 by subcutaneous injection; Group 3: chronic peptide compound administration group—the animals were administered with peptide compound at a dose of 0.5 mg/kg by subcutaneous injection for 14 days; Group 4: withdrawal group—the animals were administered with peptide compound at a dose of 0.5 mg/kg by subcutaneous injection for 14 days, withdrawal test was evaluated after 48 hours.
# The last injection of the drug/water to groups 1-3 was administered 40 minutes before the test.
# rats = test: Hot plate test in rats; assay type: in vivo; conditions: for HPL, s (Mean ± SEM): hot plate 52° C.
# Description: The “Hot Plate” test is based on the reflex that rat licking its' feet when the animal comes in contact with a hot surface. The device is a metal surface with a diameter of 30 cm whose temperature is controlled by software. The site is enclosed by a transparent fence with a height of 40 cm. The temperature of the metal pad was set at exactly 52° C. When placing the animal on the surface, you measure the time until the moment when the animal licks its' foot. When analgesics are administered, the time before the rat licks its' feet increases. The licking latency (HPL) of 40 seconds was used as the maximum allowable time of stimulation. The study was conducted on male rats weighing 160-180 g, 6 animals per dose.
# [1] = 0.5 mg/kg subcutaneous for 14 days, withdrawal test after 48 hours
structure (smiles),measurement,setting,value
"N=C(N)NCCC[C@@H](NC(=O)[C@@H](N)Cc1ccc(O)cc1)C(=O)N[C@@H](Cc1ccccc1)C(=O)NCC(N)=O [Peptide compound, H-Tyr-D-Arg-Phe-Gly-NH2] (H-Y[dR]FG-NH2)",duration of analgesic effect,"patients; Patient 1, 3 mg 2 times a day",8 to 12 h
same,subjective feelings / negative effects,"patients; Patient 1, 3 mg 2 times a day, first injection",very light dysphoric effect for 10-15 minutes
same,"degree of analgesia, pain scale 0-10","patients; Patient 1, pain before 6-9, 3 mg 2 times a day",1-3
same,Time of analgesia (onset),"patients; Patient 1, pancreatic cancer stage IV, pain 6-9, 3 mg 2 times a day subcutaneous, 5 days",10 to 15 min
same,duration of analgesic effect,patients; Patient 2,6 to 12 h
same,negative effects,patients; Patient 2,No negative effects were detected
same,"degree of analgesia, pain scale 0-10","patients; Patient 2, 2 mg three times first day, then 1.5 mg 2 times a day",2-3
same,Time of analgesia (onset),"patients; Patient 2, colon cancer stage IV, 2 mg three times first day, then 1.5 mg 2 times a day, 4 days",10 to 15 min
same,duration of analgesic effect,patients; Patient 3,8 to 10 h
same,negative effects,patients; Patient 3,No negative effects were detected
same,Time of analgesia (onset),"patients; Patient 3, colon cancer stage IV, pain 7-10, 1.5 mg 2 times a day, 4 days",10 to 15 min
same,"degree of analgesia, pain scale 0-10","patients; Patient 3, pain before 7-10, 1.5 mg 2 times a day",1-3
same,duration of analgesic effect,patients; Patient 4,8 to 10 h
same,negative effects,patients; Patient 4,No negative effects were detected
same,time of analgesic effect (onset),"patients; Patient 4, breast cancer stage IV, pain 7-10, 1.5 mg 2 times a day, 5 days",10 to 20 min
same,"degree of analgesia, pain scale 0-10","patients; Patient 4, pain before 7-10, 1.5 mg 2 times a day",1-3
same,duration of analgesic effect,patients; Patient 5,8 to 10 h
same,negative effects,patients; Patient 5,No negative effects were detected
same,Time of analgesia (onset),"patients; Patient 5, breast cancer stage IV, pain 7-8, 0.7 mg two times a day, 6 days",10 to 15 min
same,"degree of analgesia, pain scale 0-10","patients; Patient 5, pain before 7-8",1-3
same,duration of analgesic effect,patients; Patient 6,8 to 12 h
same,negative effects,patients; Patient 6,No negative effects were detected
same,Time of analgesia (onset),"patients; Patient 6, compression fracture of a vertebra, pain 7-8, 1.5 mg 2 times a day, 2 days",10 to 15 min
same,"degree of analgesia, pain scale 0-10","patients; Patient 6, pain before 7-8",1-3
same,"adverse reactions (impaired consciousness, euphoria or dysphoria, digestive tract, respiratory depression, heart disorders)",patients; all of the cases (Patients 1-6),no adverse reactions
same,"MPE, % (Mean ± SEM)",mice; 0.5 mg/kg subcutaneous chronic dosing for 14 days,50.5 ± 13.92 %
same,"TFL, s, After dosing (Mean ± SEM)","mice; 0.5 mg/kg subcutaneous chronic dosing for 14 days, 40 minutes before the test",8.6 ± 1.25 s
same,"MPE, % (Mean ± SEM)",mice; [1],1.3 ± 3.72%
same,"TFL, s, After dosing (Mean ± SEM)",mice; [1],4.8 ± 0.36 s
same,"MPE, % (Mean ± SEM)",mice; 0.5 mg/kg subcutaneous single dose on day 14,43.3 ± 11.19 %
same,"TFL, s, After dosing (Mean ± SEM)","mice; 0.5 mg/kg subcutaneous single dose on day 14, 40 minutes before the test",8.0 ± 1.03 s
same,tolerance or withdrawal syndrome,"mice; 0.5 mg/kg subcutaneously, single dosing or chronic treatment",lack of tolerance or withdrawal syndrome
same,"TFL, s, Baseline values (Mean ± SEM)",mice; group 0.5 mg/kg chronic dosing,4.6 ± 0.26 s
same,"TFL, s, Baseline values (Mean ± SEM)",mice; group 0.5 mg/kg single dose,4.5 ± 0.36 s
same,"TFL, s, Baseline values (Mean ± SEM)",mice; group 0.5 mg/kg withdrawal,4.7 ± 0.24 s
same,"Proportion of the maximum possible effect (MPE), %",rats; 0.1 mg/kg subcutaneous,38.2%
same,"HPL, s (Mean ± SEM)",rats; 0.1 mg/kg subcutaneous,26.01 ± 8.8 s
same,"Proportion of the maximum possible effect (MPE), %",rats; 5 mg/kg subcutaneous,98.3%
same,"HPL, s (Mean ± SEM)",rats; 5 mg/kg subcutaneous,39.33 ± 1.63 s
same,dose at which the effect of full analgesia was observed,rats; hot plate,5 mg/kg
same,higher level of activity in comparison with morphine,rats; hot plate,~10 times
same,dose of morphine with corresponding analgesic efficacy,"rats; hot plate, proposed drug 0.1 mg/kg",5 mg/kg
